Key:
Type in all cases: functional, cell-based
NCI-H2081 = assay: cells; conditions: Homo sapiens;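 also: growth inhibition of human NCI-H2081 cells, read out with a cell viability assay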
Description: SANGER: Inhibition of human NCI-H2081 cell growth in a cell viability assay.

RPMI-6666 = assay: cells; conditions: Homo sapiens
Description: SANGER: Inhibition of human RPMI-6666 cell growth in a cell viability assay.

NCI-H345 = assay: cells; conditions: Homo sapiens;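 also: growth inhibition of NCI-H345 cells measured with a cell viability assay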
Description: SANGER: Inhibition of human NCI-H345 cell growth in a cell viability assay.

MDA-MB-134-VI = assay: cells; conditions: Homo sapiens
Description: SANGER: Inhibition of human MDA-MB-134-VI cell growth in a cell viability assay.

JIYOYE = assay: cells; conditions: Homo sapiens
Description: SANGER: Inhibition of human JiyoyeP-2003 cell growth in a cell viability assay.

NCI-H1694 = assay: cells; conditions: Homo sapiens;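 also: cell viability assay measuring inhibition of growth in human NCI-H1694 cells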
Description: SANGER: Inhibition of human NCI-H1694 cell growth in a cell viability assay.

EVSA-T = assay: cells; conditions: Homo sapiens;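 also: growth inhibition of EVSA-T cells, read out with a cell viability assay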
Description: SANGER: Inhibition of human EVSA-T cell growth in a cell viability assay.

TALL-1 = assay: cells; conditions: Homo sapiens;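 also: growth inhibition of cultured human TALL-1 cells, read out by a cell viability assay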
Description: SANGER: Inhibition of human TALL-1 cell growth in a cell viability assay.

NCI-H1882 = assay: cells; conditions: Homo sapiens;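 also: growth inhibition of the cell line, determined with a viability assay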
Description: SANGER: Inhibition of human NCI-H1882 cell growth in a cell viability assay.

RL = assay: cells; conditions: Homo sapiens
Description: SANGER: Inhibition of human RL cell growth in a cell viability assay.

NCCIT = assay: SANGER: Inhibition of human NCCIT cell growth in a cell viability assay.
CPC-N = assay: cells; conditions: Homo sapiens;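 also: growth inhibition of CPC-N cells, with a cell viability assay as the readout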
Description: SANGER: Inhibition of human CPC-N cell growth in a cell viability assay.

MRK-nu-1 = assay: cells; conditions: Homo sapiens;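 also: cell viability assay measuring growth suppression of human MRK-nu-1 cells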
Description: SANGER: Inhibition of human MRK-nu-1 cell growth in a cell viability assay.

NB14 = assay: cells; conditions: Homo sapiens;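 also: growth inhibition of NB14 cells measured with a cell viability assay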
Description: SANGER: Inhibition of human NB14 cell growth in a cell viability assay.

DU-145 = assay: cells; conditions: Homo sapiens
Description: SANGER: Inhibition of human DU-145 cell growth in a cell viability assay.

NCI-H1793 = assay: cells; conditions: Homo sapiens;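 also: cell growth inhibition, read out by a cell viability assay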
Description: SANGER: Inhibition of human NCI-H1793 cell growth in a cell viability assay.

NCI-H1792 = assay: cells; conditions: Homo sapiens;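 also: growth inhibition of human NCI-H1792 cells, read out as cell viability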
Description: SANGER: Inhibition of human NCI-H1792 cell growth in a cell viability assay.

GCT = assay: cells; conditions: Homo sapiens;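 also: GCT cell line proliferation inhibition, read out with a cell viability assay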
Description: SANGER: Inhibition of human GCT cell growth in a cell viability assay.

HCC1954 = assay: cells; conditions: Homo sapiens;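 also: growth inhibition of human HCC1954 cells, read out with a cell viability assay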
Description: SANGER: Inhibition of human HCC1954 cell growth in a cell viability assay.

HT-3 = assay: cells; conditions: Homo sapiens;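 also: growth inhibition measured with a cell viability readout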
Description: SANGER: Inhibition of human HT-3 cell growth in a cell viability assay.

SAOS-2 = assay: cells; conditions: Homo sapiens;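 also: growth inhibition of human Saos-2 cells determined by a cell viability assay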
Description: SANGER: Inhibition of human Saos-2 cell growth in a cell viability assay.

A204 = assay: cells; conditions: Homo sapiens;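 also: growth inhibition of human A204 cells, read out with a cell viability assay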
Description: SANGER: Inhibition of human A204 cell growth in a cell viability assay.

KOSC-2 = assay: cells; conditions: Homo sapiens;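 also: growth inhibition of KOSC-2 cells, read out by a cell viability assay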
Description: SANGER: Inhibition of human KOSC-2 cell growth in a cell viability assay.

HTC-C3 = assay: cells; conditions: Homo sapiens;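 also: inhibition of cell growth, read out with a cell viability assay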
Description: SANGER: Inhibition of human HTC-C3 cell growth in a cell viability assay.

G-361 = assay: cells; conditions: Homo sapiens
SCC-9 = assay: cells; conditions: Homo sapiens;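 also: Read-out is a cell viability assay, with values giving inhibition of cell growth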
Description: SANGER: Inhibition of human SCC-9 cell growth in a cell viability assay.

HOS = assay: cells; conditions: Homo sapiens;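 also: growth inhibition of human HOS cells, read out with a cell viability assay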
Description: SANGER: Inhibition of human HOS cell growth in a cell viability assay.

AU565 = assay: cells; conditions: Homo sapiens;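 also: cell viability assay measuring growth inhibition of human AU565 cells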
Description: SANGER: Inhibition of human AU565 cell growth in a cell viability assay.

ESS-1 = assay: cells; conditions: Homo sapiens;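 also: growth inhibition of human ESS-1 cells, read out by a cell viability assay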
Description: SANGER: Inhibition of human ESS-1 cell growth in a cell viability assay.

NCI-H28 = assay: cells; conditions: Homo sapiens;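 also: growth inhibition of human NCI-H28 cells, read out as cell viability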
Description: SANGER: Inhibition of human NCI-H28 cell growth in a cell viability assay.

SNU-449 = assay: cells; conditions: Homo sapiens
Description: SANGER: Inhibition of human SNU-449 cell growth in a cell viability assay.

HT-1376 = assay: cells; conditions: Homo sapiens
Description: SANGER: Inhibition of human HT-1376 cell growth in a cell viability assay.

CWR22R = assay: cells; conditions: Homo sapiens, 22Rv1;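 also: growth inhibition of 22Rv1 cells, read out with a cell viability assay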
Description: SANGER: Inhibition of human 22RV1 cell growth in a cell viability assay.

23132-87 = assay: cells; conditions: Homo sapiens
Description: SANGER: Inhibition of human 23132-87 cell growth in a cell viability assay.

SW626 = assay: cells; conditions: Homo sapiens;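 also: growth inhibition of SW626 cells, measured with a cell viability assay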
Description: SANGER: Inhibition of human SW626 cell growth in a cell viability assay.

HGC-27 = assay: cells; conditions: Homo sapiens;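 also: growth inhibition of human HGC-27 cells, read out in a cell viability assay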
Description: SANGER: Inhibition of human HGC-27 cell growth in a cell viability assay.

HT-29 = assay: cells; conditions: Homo sapiens;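 also: growth inhibition of human HT-29 cells, read out by a cell viability assay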
Description: SANGER: Inhibition of human HT-29 cell growth in a cell viability assay.

ASPC1 = assay: cells; conditions: Homo sapiens;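 also: growth inhibition of AsPC-1 cells, read out with a cell viability assay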
Description: SANGER: Inhibition of human AsPC-1 cell growth in a cell viability assay.

RO82-W-1 = assay: cells; conditions: Homo sapiens;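 also: growth inhibition of human RO82-W-1 cells, measured with a cell viability assay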
Description: SANGER: Inhibition of human RO82-W-1 cell growth in a cell viability assay.

U-118-MG = assay: cells; conditions: Homo sapiens
Description: SANGER: Inhibition of human U-118-MG cell growth in a cell viability assay.

CAL-51 = assay: cells; conditions: Homo sapiens;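 also: human CAL-51 cell line, growth inhibition read out via a cell viability assay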
Description: SANGER: Inhibition of human CAL-51 cell growth in a cell viability assay.

HSC-2 = assay: cells; conditions: Homo sapiens;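 also: growth inhibition of human HSC-2 cells, read out by a cell viability assay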
Description: SANGER: Inhibition of human HSC-2 cell growth in a cell viability assay.

SK-N-AS = assay: cells; conditions: Homo sapiens;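 also: growth inhibition of human SK-N-AS cells, measured with a cell viability assay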
Description: SANGER: Inhibition of human SK-N-AS cell growth in a cell viability assay.

IGROV-1 = assay: cells; conditions: Homo sapiens;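 also: reduction of IGROV-1 cell growth, read out with a viability assay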
Description: SANGER: Inhibition of human IGROV-1 cell growth in a cell viability assay.

CaR-1 = assay: cells; conditions: Homo sapiens;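 also: growth inhibition of human CaR-1 cancer cells, read out with a cell viability assay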
Description: SANGER: Inhibition of human CaR-1 cell growth in a cell viability assay.

SN12C = assay: cells; conditions: Homo sapiens;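 also: growth inhibition of human SN12C cells, measured by a cell viability assay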
Description: SANGER: Inhibition of human SN12C cell growth in a cell viability assay.

HLE = assay: cells; conditions: Homo sapiens;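 also: growth inhibition of human HLE cells, read out by a cell viability assay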
Description: SANGER: Inhibition of human HLE cell growth in a cell viability assay.

HuP-T3 = assay: cells; conditions: Homo sapiens;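 also: HuP-T3 cell growth inhibition, read out with a cell viability assay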
Description: SANGER: Inhibition of human HuP-T3 cell growth in a cell viability assay.

KYSE-450 = assay: cells; conditions: Homo sapiens;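 also: cell growth inhibition measured by a viability assay in human KYSE-450 cells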
Description: SANGER: Inhibition of human KYSE-450 cell growth in a cell viability assay.

CAL-62 = assay: cells; conditions: Homo sapiens;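 also: growth inhibition of CAL-62 cells, read out with a cell viability assay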
Description: SANGER: Inhibition of human CAL-62 cell growth in a cell viability assay.

CAL-85-1 = assay: cells; conditions: Homo sapiens;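 also: growth inhibition of human CAL-85-1 cells, read out with a cell viability assay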
Description: SANGER: Inhibition of human CAL-85-1 cell growth in a cell viability assay.

HCC70 = assay: cells; conditions: Homo sapiens;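 also: cell viability assay measuring how strongly the compound suppresses proliferation of HCC70 cells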
Description: SANGER: Inhibition of human HCC70 cell growth in a cell viability assay.

SW48 = assay: cells; conditions: Homo sapiens;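 also: growth inhibition of SW48 cells, read out with a cell viability assay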
Description: SANGER: Inhibition of human SW48 cell growth in a cell viability assay.

UO-31 = assay: cells; conditions: Homo sapiens
Description: SANGER: Inhibition of human U031 cell growth in a cell viability assay.

KP-4 = assay: cells; conditions: Homo sapiens;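 also: human KP-4 cells, with growth inhibition read out through a cell viability assay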
Description: SANGER: Inhibition of human KP-4 cell growth in a cell viability assay.

NCI-H1563 = assay: cells; conditions: Homo sapiens;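 also: growth inhibition of human NCI-H1563 cells, read out with a cell viability assay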
Description: SANGER: Inhibition of human NCI-H1563 cell growth in a cell viability assay.

MDA-MB-157 = assay: cells; conditions: Homo sapiens
Description: SANGER: Inhibition of human MDA-MB-157 cell growth in a cell viability assay.

SK-MEL-24 = assay: cells; conditions: Homo sapiens;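 also: growth inhibition read out by a cell viability assay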
Description: SANGER: Inhibition of human SK-MEL-24 cell growth in a cell viability assay.

FTC-133 = assay: cells; conditions: Homo sapiens
A673 = assay: cells; conditions: Homo sapiens;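 also: growth inhibition of human A673 cells, read out through a cell viability assay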
Description: SANGER: Inhibition of human A673 cell growth in a cell viability assay.

LN-405 = assay: cells; conditions: Homo sapiens
Description: SANGER: Inhibition of human LN-405 cell growth in a cell viability assay.

LU-99A = assay: cells; conditions: Homo sapiens;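 also: growth inhibition of LU-99A cells, read out with a cell viability assay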
Description: SANGER: Inhibition of human LU-99A cell growth in a cell viability assay.

MIA PaCa-2 = assay: cells; conditions: Homo sapiens;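 also: growth inhibition of MIA PaCa-2 cells, read out with a cell viability assay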
Description: SANGER: Inhibition of human MIA-PaCa-2 cell growth in a cell viability assay.

A-375 = assay: cells; conditions: Homo sapiens;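 also: growth inhibition of A375 cells, read out with a cell viability assay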
Description: SANGER: Inhibition of human A375 cell growth in a cell viability assay.

Measured: IC50

CCNc1cc(N[C@H]2CC[C@@H](O)CC2)nc(Nc2ccc3c(ccn3Cc3ccccc3)c2)n1
3.09 µM: MRK-nu-1
> 5.12 µM: NCI-H2081 | RPMI-6666 | NCI-H345 | MDA-MB-134-VI | JIYOYE | NCI-H1694 | EVSA-T | TALL-1 | NCI-H1882 | RL | NCCIT | CPC-N | NB14

N#C/C(=C1/Nc2ccccc2S1)c1ccnc(NCCc2cccnc2)n1
3.29 µM: NCI-H28
0.603 µM: IGROV-1
7.32 µM: HT-1376
5.3 µM: CAL-51
7.07 µM: MDA-MB-157
7.34 µM: A204
6.43 µM: KP-4
2.55 µM: AU565
5.87 µM: SW626
7.1 µM: 23132-87
5.89 µM: CAL-62
6.49 µM: ESS-1
4.27 µM: HT-29
3.47 µM: HLE
6.27 µM: HGC-27
4.87 µM: SNU-449
1.14 µM: KYSE-450
7.2 µM: UO-31
1.5 µM: CAL-85-1
2.16 µM: SW48
3.6 µM: GCT
0.976 µM: MIA PaCa-2
6.52 µM: HTC-C3
not listed: NB14
> 8 µM: all other assays above

COc1cc(C)c(Sc2cnc(NC(=O)c3ccc(CNC(C)C(C)(C)C)cc3)s2)cc1C(=O)N1CCN(C(C)=O)CC1 (stereo not given)
8.3 µM: MRK-nu-1
> 10.2 µM: NCI-H2081 | RPMI-6666 | NCI-H345 | MDA-MB-134-VI | JIYOYE | NCI-H1694 | EVSA-T | TALL-1 | NCI-H1882 | RL | NCCIT | CPC-N | NB14

Cc1ccc(NC(=O)c2cccc(C(C)(C)C#N)c2)cc1Nc1ccc2ncn(C)c(=O)c2c1
0.493 µM: NB14
> 4 µM: NCI-H2081 | RPMI-6666 | NCI-H345 | MDA-MB-134-VI | JIYOYE | NCI-H1694 | EVSA-T | TALL-1 | NCI-H1882 | RL | NCCIT | CPC-N | MRK-nu-1
